Measured values taken from patent US20200253929A1, “TREATMENT OF EPILEPSY” (priority 2017, published 2020).

Assays:
[1] = target: T1, CYP2C9 (Homo sapiens, UniProt P11712); assay: CYP450 enzyme inhibition assay, CYP2C9; type: in vitro ADME; conditions: human liver microsomes; for IC50: diclofenac probe
T1 construct: containing Human Liver Microsomes (HLM) (0.5 mg/mL); from tissue; host or cells: human liver microsomes
Experimental: Protocol was based on literature [Perez-Del Palacio et al. (2017) Front Pharmacol 8, 202]. Assessment of CYP450 inhibition was conducted in 96-well plate format at 37° C. Test compounds were dissolved in DMSO/acetonitrile (2 μL) and diluted in 98 μL NADPH solution (2 mM). Reactions were started by addition of 100 μL potassium phosphate buffer (200 mM, pH 7.4) containing Human Liver Microsomes (HLM) (0.5 mg/mL). Probe reactions for CYP3A4, CYP2D6 and CYP2C9 were conducted with 50 μM testosterone, 22 μM dextromethorphan and 10 μM diclofenac for 15 min. Reactions were terminated with the addition of a quench solution (90 μL) of acetonitrile containing internal standards for LC-MS/MS determination (60 ppb cortisone, 100 ppb 4′-hydroxydiclofenac 13C6, 60 ppb levallorphan).

[2] = Metabolic stability assay (hepatic clearance); type: in vitro ADME; conditions: human liver microsomes; for Hepatic clearance / Hepatic clearance t1/2 (half-life): 1 μM
Experimental: The assay was performed with a mixture of test compounds (1 μM), NADPH (4 mM) and Human Liver Microsomes (HLM) (1 mg/mL) incubated at 37° C. Reactions were quenched at 0, 15, 30, 45, 60, and 90 min, using an equal volume of acetonitrile and then diluted 1:1 with water prior to analysis by LC-MS/MS. The analysis was performed using an Agilent Series 1290 LC system (Agilent Technologies, Santa Clara, Calif., USA) using a Supelco Discovery HS C18 (2.1×50 mm) 3 µm column that was held at 30° C. Solvent A contained water with 0.1% formic acid and solvent B contained acetonitrile with 0.1% formic acid, and the flow rate was set at 400 μL/min. The gradient elution was performed as follows: 0-0.5 min 0% eluent B; 0.5-7 min 100% eluent B; 7-9 min 100% eluent B; 9-9.2 min 0% eluent B; and 9.2-10.5 min 0% eluent B. An API 4000 mass spectrometer in positive ESI mode (AB SCIEX, Concord, ON, Canada) was used with a generic method for data acquisition on all compounds. Data processing was performed using MultiQuant Software (AB SCIEX, Concord, ON, Canada) to process the data. Peak areas were used to plot the Ln % remaining relative to time (t)=0. The slope of the natural log of the percent remaining versus time was calculated to determine the first-order rate constant (k) and the half-life (t1/2) of the test compounds according to the following equation: t1/2=0.693/k (min)

[3] = test system: PTZ-induced epileptiform brain activity in zebrafish larvae; assay: Zebrafish PTZ seizure model, local field potential recordings (electrophysiology); type: in vivo, Danio rerio; conditions: 10 min recording, vs VHC+PTZ; for reduction of percentage of larvae with PTZ-induced epileptiform activity: MTC and optimal incubation time (2 h azaspirofuran, 18 h pseurotins), 15 min PTZ; for cumulative duration of epileptiform events / number of epileptiform events: MTC and optimal incubation time
Source text: To determine whether azaspirofuran A and pseurotin A2 can ameliorate the PTZ-induced hyperexcitable state of the brain that is characterized by epileptiform discharges, local field potential (LFP) recordings were non-invasively measured from the midbrain (optic tectum) of zebrafish larvae [Zdebik et al. (2013) PLoS One 8, e79765; Britton et al. (2016) In Electroencephalography (EEG): An Introductory Text and Atlas of Normal and Abnormal Findings in Adults, Children, and Infants (St. Louis and Frey, Eds.), Chicago]. To that end larvae were treated with either VHC or test compound (MTC and optimal incubation time were used) followed by a 15 min during exposure to PTZ or VHC prior to the electrophysiology measurements (FIG. 4). […] Thus, both compounds not only ameliorate PTZ-induced seizures but are likely to do so by lowering the PTZ-induced hyperexcitable state of the brain.
Experimental procedure was described before [Zdebik et al. (2013) PLoS One 8, e79765; Sourbron et al. (2017) Front. Pharmac. 8, 191; Copmans et al. (2018) Neurochem. Int. 112, 124-133.]. Non-invasive LFP recordings were measured from the midbrain (optic tectum) of 7 dpf zebrafish larvae pre-incubated with VHC only, PTZ only, compound and VHC, or compound and PTZ. Larvae were incubated for approximately 2 or 18 hours with VHC (1% DMSO) or compound (1% DMSO) in a 100 μL volume. After incubation, 100 μL of VHC (embryo medium) or 40 mM PTZ (dissolved in embryo medium, 20 mM working concentration) was added to the well for 15 min prior to recording. These steps occurred at 28° C., while further manipulation and electrophysiological recordings occurred at room temperature (21° C.). The larva was embedded in 2% low melting point agarose (Invitrogen) and the signal electrode (an electrode inside a soda-glass pipet (1412227, Hilgenberg) pulled with a DMZ Universal Puller (Zeitz, Germany), diameter±20 microns, containing artificial cerebrospinal fluid (ACSF: 124 mM NaCl, 10 mM glucose, 2 mM KCl, 2 mM MgSO4, 2 mM CaCl2, 1.25 mM KH2PO4, and 26 mM NaHCO3, 300-310 mOsmols)) was positioned on the skin covering the optic tectum. A differential extracellular amplifier (DAGAN, USA) amplified the voltage difference between the signal (measured by the signal electrode) and the reference electrode. The differential signal was band pass filtered at 0.3-300 Hz and digitized at 2 kHz via a PCI-6251 interface (National instruments, UK) using WinEDR (John Dempster, University of Strathclyde, UK). A grounding electrode grounded the electrical system. All electrodes were connected with ACSF. Each recording lasted 600 seconds. Manual analysis was completed by quantification of the number, cumulative duration, and mean duration of epileptiform-like events with Clampfit 10.2 software (Molecular Devices Corporation, USA). An electrical discharge was considered epileptiform if it was a poly-spiking event comprising at least 3 spikes with a minimum amplitude of three times the baseline amplitude and a duration of at least 100 milliseconds. Data are expressed as mean±SD for the number and cumulative duration of epileptiform events and as mean±SEM for the mean duration of events.

T1 sequence (P11712 whole entry): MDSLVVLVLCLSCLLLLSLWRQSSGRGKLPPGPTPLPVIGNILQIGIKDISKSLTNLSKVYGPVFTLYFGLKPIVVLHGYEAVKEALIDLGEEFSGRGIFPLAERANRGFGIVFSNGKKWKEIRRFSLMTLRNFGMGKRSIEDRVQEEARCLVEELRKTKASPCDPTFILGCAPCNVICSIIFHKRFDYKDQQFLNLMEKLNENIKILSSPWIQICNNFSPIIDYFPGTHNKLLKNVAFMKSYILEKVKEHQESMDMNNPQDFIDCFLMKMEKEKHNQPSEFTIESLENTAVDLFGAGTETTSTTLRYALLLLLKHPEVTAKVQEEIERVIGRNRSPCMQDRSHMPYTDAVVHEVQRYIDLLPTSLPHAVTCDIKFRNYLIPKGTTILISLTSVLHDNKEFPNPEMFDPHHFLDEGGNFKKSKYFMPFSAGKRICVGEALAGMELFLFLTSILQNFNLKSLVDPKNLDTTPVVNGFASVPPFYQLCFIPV

Compound | CYP2C9, effect [1] | IC50 [1] [µM] | Hepatic clearance, rating [2] | Hepatic clearance [2] [μL/ μL/min/mg protein] | Hepatic clearance t1/2 (half-life) [2] [min] | Hepatic clearance t1/2 (half-life) ([2]; listed as Azaspirofuran A) [min] | reduction of percentage of larvae with PTZ-induced epileptiform activity [3] [%] | cumulative duration of epileptiform events [3] | number of epileptiform events [3] | Hepatic clearance t1/2 (half-life) ([2]; listed as Pseurotin A2) [min]
CCc1ccc(C2=C(C)C(=O)C3(O2)C(=O)NC(OC)(C(=O)c2ccccc2)C3O)o1 (stereo not drawn) [azaspirofuran A] | Weak | 47.3 | Medium | 20.17 | 33 | 33.12 | ~60 | shorter cumulative duration of events | significantly less epileptiform events | 
CC/C=C\[C@H](O)[C@H](O)C1=C(C)C(=O)[C@]2(O1)C(=O)N[C@](OC)(C(=O)c1ccccc1)[C@H]2O [pseurotin A2] | No effect | > 88 | Low | <8.6 | > 60 |  | 33 | shorter cumulative duration of events | significantly less epileptiform events | > 60
